According to patent US4918012A (Kyowa Hakko Kogyo Co., Ltd., priority 1986, dated 1990):

Experiments:
strain CA28-50A = test: Effect of compound added to growth medium on carnitinamide hydrolase formation (Example 9); format: cell-based, Pseudomonas sp. CA28-50A; settings: 26° C.; for Conversion Rate of L-carnitinamide into L-carnitine: cells reacted with 10% DL-carnitinamide, 96 hours; for Growth (optical density at 660, 1.00 cm, 20 times dilution): strain CA28-50A, 3 days
Experimental: In a medium consisting of 1% glucose, 0.5% peptone, 0.75% K2 HPO4, 0.25% KH2 PO4, 0.01% MgSO4.7H2 O, 0.001% FeSO4.7H2 O and one of the compounds shown in Table 6 below and the balance water (pH 7.2) was inoculated the strain CA28-50A and shake cultured at 26° C. for 3 days. Cells collected from the culture broth by centrifugation were suspended in a reaction solution containing 10% DL-carnitinamide in the same density as that in the medium for growth culture, and the resulting suspension was allowed to stand at 26° C. for 96 hours for the reaction.

[1] = tested on: L-carnitinamide hydrolase; test: Inhibitors of L-carnitinamide hydrolase (metal ions, EDTA, 2-mercaptoethanol); format: biochemical, Pseudomonas sp.
Description: The determination of the activity of carnitinamide hydrolase can be carried out by measuring the amount of carnitine generated by, for example, Pearson's method (D. J. Pearson et al., Method in Enzymology, Vol. 14, 612 (1969)). When there is no inhibitory substances present, the determination of the activity of the enzyme can also be carried out by measuring the amount of ammonia generated by the reaction.

## C[N+](C)(C)CC(O)CC(N)=O (racemic) [DL-Carnitinamide]
Strain CA28-50A; compound 0.5% in growth medium
  Conversion Rate of L-carnitinamide into L-carnitine: 88.7%
  Growth (optical density at 660, 1.00 cm, 20 times dilution): 0.27

## C[N+](C)(C)CC(O)CC(=O)[O-] (racemic) [DL-Carnitine]
Strain CA28-50A; compound 0.5% in growth medium
  Conversion Rate of L-carnitinamide into L-carnitine: 90.0%
  Growth (optical density at 660, 1.00 cm, 20 times dilution): 0.27

## OCCS [2-mercaptoethanol]
[1]; at 10 mM
  Inhibition of the enzyme: do not show inhibition
[1]; concentration of 1 mM
  Inhibition of the enzyme: do not show inhibition

## [Ag+] [Ag ion]
[1]; at 10 mM
  Inhibition of the enzyme: remarkable inhibition
[1]; concentration of 1 mM
  Inhibition of the enzyme: slight inhibition

## [Co+2] [Co]
[1]; concentration of 1 mM
  Inhibition of the enzyme: no inhibition

## O=C(O)CN(CCN(CC(=O)O)CC(=O)O)CC(=O)O [EDTA]
[1]; at 10 mM
  Inhibition of the enzyme: do not show inhibition
[1]; concentration of 1 mM
  Inhibition of the enzyme: do not show inhibition

## [Mg+2] [Mg]
[1]; concentration of 1 mM
  Inhibition of the enzyme: no inhibition

## [Mn+2] [Mn]
[1]; concentration of 1 mM
  Inhibition of the enzyme: no inhibition

## Cl.N [NH4 Cl]
Strain CA28-50A; compound 0.1% in growth medium
  Conversion Rate of L-carnitinamide into L-carnitine: 2.9%
  Growth (optical density at 660, 1.00 cm, 20 times dilution): 0.23

## [Ni+2] [Ni]
[1]; at 10 mM
  Inhibition of the enzyme: slight inhibition
[1]; concentration of 1 mM
  Inhibition of the enzyme: no inhibition

## [Zn+2] [Zn]
[1]; concentration of 1 mM
  Inhibition of the enzyme: no inhibition

## C[N+](C)(C)CCCC(=O)[O-] [γ-Butyrobetaine]
Strain CA28-50A; compound 0.5% in growth medium
  Conversion Rate of L-carnitinamide into L-carnitine: 12.3%
  Growth (optical density at 660, 1.00 cm, 20 times dilution): 0.26
